From patent publication US20130202698A1 (NANJING SANHOME PHARMACEUTICAL CO., LTD., priority 2005, published 2013)
Marks after values point to notes of the source that are not given here.

Assays:
[1] = tested on: thiopental-induced hypnosis; test: Effects on thiopental-induced hypnosis; settings: mice, 30 min before sodium thiopental 40 mg/kg IP, Mean ± SD, n=10
Method: A total of 70 mice were divided into 7 groups with 10 mice in each group (half male and half female), and animals were fasted for 8 hours before study. Vehicle control and ornidazole enantiomers were injected intraperitoneal (IP), after 30 minutes, sodium thiopental was then given IP: at 40 mg/kg.
Levo-, dextro-ornidazole and racemate are studied and compared in 6 treatment groups at 2 different dose levels of 40 and 80 mg/kg. The dose volume is 0.2 mL/10 gram and infusion rate is 0.2 mL/10 seconds.

[2] = Phase II clinical trial, intravenous, adverse events; assay type: in vivo, human
Method: A double-blinded randomized controlled trial was carried out to compare the adverse events between the I.V. levo-ornidazole and racemate treatment groups. […] The high rate of adverse events observed from the treatment by the racemic drug caused patient treatment non-compliant, which could be dangerous for life-threatening infections.

[3] = tested on: motor balance and coordination; test: Motor balance and coordination, modified beam walking method; settings: mice, n=10
Method: Motor balance and coordination were tested using a modified beam walking method. Mice were put on a smooth beam tilted at an angle of 70 degree. Mice passed the test by standing on the beam for 0.5 minute without falling off. All the mice were pre-screened before the studies, and a total of 110 mice were selected by passing the beam test in 3 consecutive tries. The selected mice were divided into 11 groups with 10 mice in each group (half male and half female). At certain time points after drug administration, mice were tested on the beam for 3 consecutive times. A mouse was counted as failing to the test if it fell off the beam for 2 or more times.
The dose volume was 0.2 mL/10 gram and infusion rate was 0.2 mL/10 seconds. Chlorpromazine was used as the positive control.

[4] = tested on: spontaneous activities of mice; test: Effects on spontaneous activities of mice; settings: Mean ± SD, n=10
Method: Mice weighing 18-22 g, half male and half female, were placed in the laboratory 24 hours before the test to adapt to the environment. The room temperature was controlled at 24±2° C. Animals were fasted for 8 hours before testing, and then placed in a transparent cage. The number of spontaneous activities of mice was counted by an automatic device (model XZ-4 by Drug Research Institute of China Academy of Medical Sciences). Mice were pre-screened by counting their spontaneous activities for five minutes and unqualified mice were excluded. A total of 110 mice were selected and divided into 11 groups with 10 mice in each group.
Chlorpromazine (3 mg/kg) was used as the positive control. The dose volume was 0.2 mL/10 gram and infusion rate was 0.2 mL/10 seconds.

[5] = Phase I clinical trials, intravenous, adverse events; assay type: in vivo; settings: human phase I, 1.0 g, I.V., qd × 1d
Method: The clinical trials were conducted to test if the toxicities observed in animal models would correlate with the adverse effects in humans. Double-blinded, randomized controlled human phase I and phase II clinical trials were carried out to compare L-ornidazole with racemate in both intravenous (I.V.) and oral formulations. L-ornidazole caused remarkably less adverse events (related to nervous system) than the racemate in both I.V. and oral routes. Such adverse drug events may cause non-compliance in patients being treated, which could be dangerous for life-threatening infections.

Q: Which “Sleeping Time” value ([1]; 40 mg/kg IP) does the source give for Cc1ncc([N+](=O)[O-])n1CC(O)CCl (racemic) [Racemic ornidazole, 1-(3-Chloro-2-hydroxypropyl)-2-methyl-5-nitroimidazole] here?
A: 74.0 ± 51.3 min

Q: And the “Time to Lose Righting Reflex” value ([1]; 40 mg/kg IP)?
A: 2.1 ± 0.3 min

Q: What about the “Sleeping Time” value ([1]; 80 mg/kg IP) of the same compound?
A: 106.6 ± 99.2 min

Q: And the “Time to Lose Righting Reflex” value ([1]; 80 mg/kg IP)?
A: 1.9 ± 0.4 min

Q: What about the “Adverse events reported (total)” value ([2]; human phase II, I.V.) of the same compound?
A: 42

Q: And the “Appetite drop, # of Patients with AE” value ([2]; human phase II, I.V.)?
A: 0

Q: And the “Appetite drop, Incidence (%)” value ([2]; human phase II, I.V.)?
A: 0.00%

Q: And the “Dizziness, # of Patients with AE” value ([2]; human phase II, I.V.)?
A: 5

Q: And the “Dizziness, Incidence (%)” value ([2]; human phase II, I.V.)?
A: 3.60%

Q: What about the “Dry mouth, # of Patients with AE” value ([2]; human phase II, I.V.) of the same compound?
A: 2

Q: And the “Dry mouth, Incidence (%)” value ([2]; human phase II, I.V.)?
A: 1.44%

Q: And the “Headache, # of Patients with AE” value ([2]; human phase II, I.V.)?
A: 1

Q: What about the “Headache, Incidence (%)” value ([2]; human phase II, I.V.) of the same compound?
A: 0.72%

Q: And the “Hypersomnia, # of Patients with AE” value ([2]; human phase II, I.V.)?
A: 10

Q: And the “Hypersomnia, Incidence (%)” value ([2]; human phase II, I.V.)?
A: 7.19^## %

Q: What about the “Hypodynamia, # of Patients with AE” value ([2]; human phase II, I.V.) of the same compound?
A: 1

Q: And the “Hypodynamia, Incidence (%)” value ([2]; human phase II, I.V.)?
A: 0.72%

Q: And the “Nausea, # of Patients with AE” value ([2]; human phase II, I.V.)?
A: 1

Q: What about the “Nausea, Incidence (%)” value ([2]; human phase II, I.V.) of the same compound?
A: 0.72%

Q: What about the “Stomach discomfort, # of Patients with AE” value ([2]; human phase II, I.V.) of the same compound?
A: 1

Q: And the “Stomach discomfort, Incidence (%)” value ([2]; human phase II, I.V.)?
A: 0.72%

Q: And the “Total incidence rate of adverse events” value ([2]; human phase II, I.V.)?
A: 21.58%

Q: And the “Vertigo, # of Patients with AE” value ([2]; human phase II, I.V.)?
A: 17

Q: And the “Vertigo, Incidence (%)” value ([2]; human phase II, I.V.)?
A: 12.23^## %

Q: What about the “Vomiting, # of Patients with AE” value ([2]; human phase II, I.V.) of the same compound?
A: 1

Q: And the “Vomiting, Incidence (%)” value ([2]; human phase II, I.V.)?
A: 0.72%

Q: What about the “WBC decline, # of Patients with AE” value ([2]; human phase II, I.V.) of the same compound?
A: 3

Q: What about the “WBC decline, Incidence (%)” value ([2]; human phase II, I.V.) of the same compound?
A: 2.16%

Q: What about the “Patients with adverse events (total)” value ([2]; human phase II, I.V., out of 136 (levo) / 139 (racemate) patients) of the same compound?
A: 30 patients

Q: And the “Number of Animals Fall Off” value ([3]; 40 mg/kg, 0.5 hours post-dose)?
A: 1

Q: What about the “Number of Animals Fall Off” value ([3]; 40 mg/kg, 1 hours post-dose) of the same compound?
A: 0

Q: And the “Number of Animals Fall Off” value ([3]; 40 mg/kg, 2 hours post-dose)?
A: 0

Q: What about the “Number of Animals Fall Off” value ([3]; 40 mg/kg, 3 hours post-dose) of the same compound?
A: 0

Q: What about the “Number of Animals Fall Off” value ([3]; 40 mg/kg, 4 hours post-dose) of the same compound?
A: 0

Q: What about the “Number of Animals Fall Off” value ([3]; 80 mg/kg, 0.5 hours post-dose) of the same compound?
A: 0

Q: And the “Number of Animals Fall Off” value ([3]; 80 mg/kg, 1 hours post-dose)?
A: 0

Q: And the “Number of Animals Fall Off” value ([3]; 80 mg/kg, 2 hours post-dose)?
A: 2

Q: What about the “Number of Animals Fall Off” value ([3]; 80 mg/kg, 3 hours post-dose) of the same compound?
A: 0

Q: What about the “Number of Animals Fall Off” value ([3]; 80 mg/kg, 4 hours post-dose) of the same compound?
A: 0

Q: And the “Number of Animals Fall Off” value ([3]; 160 mg/kg, 0.5 hours post-dose)?
A: 10##

Q: And the “Number of Animals Fall Off” value ([3]; 160 mg/kg, 1 hours post-dose)?
A: 8##

Q: What about the “Number of Animals Fall Off” value ([3]; 160 mg/kg, 2 hours post-dose) of the same compound?
A: 6

Q: What about the “Number of Animals Fall Off” value ([3]; 160 mg/kg, 3 hours post-dose) of the same compound?
A: 4

Q: And the “Number of Animals Fall Off” value ([3]; 160 mg/kg, 4 hours post-dose)?
A: 3

Q: And the “Spontaneous Activities (per 5 min)” value ([4]; 40 mg/kg i.v., 0.5 h post-dose)?
A: 79 ± 26 per 5 min

Q: And the “Spontaneous Activities (per 5 min)” value ([4]; 40 mg/kg i.v., 1 h post-dose)?
A: 56 ± 37 per 5 min

Q: What about the “Spontaneous Activities (per 5 min)” value ([4]; 40 mg/kg i.v., 2 h post-dose) of the same compound?
A: 63 ± 23 per 5 min

Q: What about the “Spontaneous Activities (per 5 min)” value ([4]; 40 mg/kg i.v., 3 h post-dose) of the same compound?
A: 62 ± 24 per 5 min

Q: And the “Spontaneous Activities (per 5 min)” value ([4]; 40 mg/kg i.v., 4 h post-dose)?
A: 72 ± 35 per 5 min

Q: And the “Spontaneous Activities (per 5 min)” value ([4]; 80 mg/kg i.v., 0.5 h post-dose)?
A: 48 ± 35 per 5 min

Q: And the “Spontaneous Activities (per 5 min)” value ([4]; 80 mg/kg i.v., 1 h post-dose)?
A: 26 ± 19 per 5 min

Q: What about the “Spontaneous Activities (per 5 min)” value ([4]; 80 mg/kg i.v., 2 h post-dose) of the same compound?
A: 32 ± 21 per 5 min

Q: What about the “Spontaneous Activities (per 5 min)” value ([4]; 80 mg/kg i.v., 3 h post-dose) of the same compound?
A: 55 ± 27 per 5 min

Q: And the “Spontaneous Activities (per 5 min)” value ([4]; 80 mg/kg i.v., 4 h post-dose)?
A: 61 ± 20 per 5 min

Q: And the “Spontaneous Activities (per 5 min)” value ([4]; 160 mg/kg i.v., 0.5 h post-dose)?
A: 29 ± 17 per 5 min

Q: What about the “Spontaneous Activities (per 5 min)” value ([4]; 160 mg/kg i.v., 1 h post-dose) of the same compound?
A: 22 ± 14 per 5 min

Q: What about the “Spontaneous Activities (per 5 min)” value ([4]; 160 mg/kg i.v., 2 h post-dose) of the same compound?
A: 21 ± 12 per 5 min

Q: What about the “Spontaneous Activities (per 5 min)” value ([4]; 160 mg/kg i.v., 3 h post-dose) of the same compound?
A: 30 ± 13 per 5 min

Q: What about the “Spontaneous Activities (per 5 min)” value ([4]; 160 mg/kg i.v., 4 h post-dose) of the same compound?
A: 51 ± 23 per 5 min

Q: What about the “# of Patients Reporting Adverse Events/Total Patients” value [5] of the same compound?
A: 5/10

Q: With Cc1ncc([N+](=O)[O-])n1C[C@H](O)CCl [L-ornidazole, S-(−)-ornidazole] as the compound, how does the “Adverse events reported (total)” value ([2]; human, in vivo, iv) read?
A: 3

Q: What about the “Appetite drop, # of Patients with AE” value ([2]; human, in vivo, iv) of the same compound?
A: 1

Q: And the “Appetite drop, Incidence (%)” value ([2]; human, in vivo, iv)?
A: 0.74%

Q: And the “Dizziness, # of Patients with AE” value ([2]; human, in vivo, iv)?
A: 0

Q: What about the “Dizziness, Incidence (%)” value ([2]; human, in vivo, iv) of the same compound?
A: 0.00%

Q: And the “Dry mouth, # of Patients with AE” value ([2]; human, in vivo, iv)?
A: 0

Q: And the “Dry mouth, Incidence (%)” value ([2]; human, in vivo, iv)?
A: 0.00%

Q: What about the “Headache, # of Patients with AE” value ([2]; human, in vivo, iv) of the same compound?
A: 0

Q: What about the “Headache, Incidence (%)” value ([2]; human, in vivo, iv) of the same compound?
A: 0.00%

Q: And the “Hypersomnia, # of Patients with AE” value ([2]; human, in vivo, iv)?
A: 0

Q: What about the “Hypersomnia, Incidence (%)” value ([2]; human, in vivo, iv) of the same compound?
A: 0.00%

Q: What about the “Hypodynamia, # of Patients with AE” value ([2]; human, in vivo, iv) of the same compound?
A: 0

Q: What about the “Hypodynamia, Incidence (%)” value ([2]; human, in vivo, iv) of the same compound?
A: 0.00%

Q: What about the “Nausea, # of Patients with AE” value ([2]; human, in vivo, iv) of the same compound?
A: 0

Q: And the “Nausea, Incidence (%)” value ([2]; human, in vivo, iv)?
A: 0.00%

Q: What about the “Patients with adverse events (total)” value ([2]; human, in vivo, iv) of the same compound?
A: 2 patients

Q: What about the “Stomach discomfort, # of Patients with AE” value ([2]; human, in vivo, iv) of the same compound?
A: 0

Q: And the “Stomach discomfort, Incidence (%)” value ([2]; human, in vivo, iv)?
A: 0.00%

Q: What about the “Total incidence rate of adverse events” value ([2]; human, in vivo, iv) of the same compound?
A: 1.47%

Q: What about the “Vertigo, # of Patients with AE” value ([2]; human, in vivo, iv) of the same compound?
A: 0

Q: What about the “Vertigo, Incidence (%)” value ([2]; human, in vivo, iv) of the same compound?
A: 0.00%

Q: And the “Vomiting, # of Patients with AE” value ([2]; human, in vivo, iv)?
A: 0

Q: What about the “Vomiting, Incidence (%)” value ([2]; human, in vivo, iv) of the same compound?
A: 0.00%

Q: What about the “WBC decline, # of Patients with AE” value ([2]; human, in vivo, iv) of the same compound?
A: 2

Q: What about the “WBC decline, Incidence (%)” value ([2]; human, in vivo, iv) of the same compound?
A: 1.47%
